Read-outs that look alike come from different tables or passages of the source.
What was measured:
[1] = In vitro cytotoxicity MTT assay; type: cell-based; conditions: human
Protocol: To preliminarily evaluate the safety of the AGS inhibitors, the in vitro cytotoxicity of 3, 8, 9, 11, 14, 16, and 17 toward human normal hepatocyte (LO2) cells was tested by MTT assay. […] Since cancer and diabetes are linked, these compounds need to be evaluated for cytotoxicity against a panel of cancer cell lines to assess their safety profile at least in vitro in future studies.
The LO2 cell line was cultured in a 1640 medium supplemented with 10% fetal bovine serum, 100 U/mL of penicillin, and 0.1 mg/mL of streptomycin in a humidified incubator with a 5% CO2 atmosphere at 37 °C. The cells were seeded in 96-well plates at a density of 3 × 10^3 cells per well. After 12 h, the medium in the wells was replaced by 100 µL of fresh medium containing drugs of six different concentrations. After incubation for another 48 h, the medium was removed and the fresh medium containing 10 µL of MTT (5 mg/mL) were added to each well and incubated for 4 h. Then, the medium was replaced by 100 µL of DMSO to dissolve the formazan crystals. OD570 was detected on a microplate reader. Parallel triplicate replication was performed for each dose, and the IC50 values were calculated.

α-Glucosidase (AGS) [2] = target: T1, α-Glucosidase (AGS) (Saccharomyces cerevisiae, UniProt P53341); assay: Inhibition kinetics analysis (Lineweaver–Burk plots and secondary plots); type: biochemical; conditions: for inhibition type against AGS: Lineweaver–Burk plots
Protocol: Although several 2,5-DKP containing cyclodipeptides have been reported to inhibit the activity of AGS to different extents, little is known on the inhibition kinetics of these inhibitors. Herein, the inhibition kinetic mechanisms of 3, 8, 9, 11, 14, 16, and 17 against AGS were analyzed using the Lineweaver–Burk plots. The inhibition constants Ki and Ki’ of the inhibitors were calculated by secondary plots of “slope versus [I]” and “Y-intercept versus [I]”, respectively. […] This postulation was reinforced by the varied Km/Vmax values which were not in accordance with uncompetitive inhibition. However, the replots of the slope and y-intercept versus the concentration of 14 and 17 were not linearly fitted, which limited the application of Equations (3) and (4). […] It was interesting that seven cyclodipeptide congeners tended to inhibit the activity of AGS in four different manners, which was proposed to be caused by different substitutions on the 2,5-DKP moiety.
The mode of inhibition was determined by the Lineweaver–Burk plot using GraphPad Prism 8.0 software. The Km and Vmax values were obtained from the slope and y-axis intercept of the Lineweaver–Burk plot based on Equations (1) and (2):(1) Vmax=1/Y-intercept (2) Km=slope× Vmax
The Ki and Ki’ values were calculated by secondary plotting of the slope and y-intercept on the Lineweaver–Burk plot versus the inhibitor [I] based on Equations (3) and (4):(3) Slope=Km/Vmax+Km[I]/VmaxKi (4) Y-intercept=1/Vmax+[I]/VmaxKi^′

α-Glucosidase (AGS) [3] = target: T1, α-Glucosidase (AGS); assay: biochemical; conditions: read-out: AGS inhibitory activity IC50
Protocol: The AGS inhibitory activity was evaluated following the methods reported in the literature.

[4] = inhibitor concentration 0.08 mM
[5] = secondary plot of Y-intercept versus [I], binding to AGS-substrate complex, read-out: Ki
[6] = inhibitor concentration 0.06 mM
[7] = inhibitor concentration 0.07 mM
[8] = inhibitor concentration 0.09 mM
[9] = inhibitor concentration 0.04 mM
[10] = inhibitor concentration 0.05 mM
[11] = inhibitor concentration 0.10 mM

T1 sequence (P53341 whole entry): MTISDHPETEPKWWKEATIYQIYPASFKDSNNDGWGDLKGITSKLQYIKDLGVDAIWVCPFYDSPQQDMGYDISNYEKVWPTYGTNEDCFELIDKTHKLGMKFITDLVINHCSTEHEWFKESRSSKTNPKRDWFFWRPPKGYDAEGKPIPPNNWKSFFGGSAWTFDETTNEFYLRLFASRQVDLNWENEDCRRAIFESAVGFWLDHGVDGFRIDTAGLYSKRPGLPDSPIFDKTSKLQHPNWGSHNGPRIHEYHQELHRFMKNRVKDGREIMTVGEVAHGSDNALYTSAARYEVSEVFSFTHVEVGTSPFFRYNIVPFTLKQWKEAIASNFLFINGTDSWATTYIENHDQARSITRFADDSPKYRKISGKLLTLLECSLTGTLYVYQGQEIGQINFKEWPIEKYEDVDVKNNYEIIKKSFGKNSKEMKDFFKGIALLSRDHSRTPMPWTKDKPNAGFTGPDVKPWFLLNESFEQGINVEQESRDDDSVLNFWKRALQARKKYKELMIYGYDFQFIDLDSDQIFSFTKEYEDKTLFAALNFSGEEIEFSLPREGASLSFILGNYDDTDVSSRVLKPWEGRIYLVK

SMILES	IC50 at 48 h ([1]; LO2 cells (human normal hepatocyte cell line), MTT, 48 h incubation, read-out: Cytotoxicity IC50 against LO2 cells)	Ki (α-Glucosidase (AGS) [2])	inhibition type against AGS (α-Glucosidase (AGS) [2])	Vmax (α-Glucosidase (AGS) [2]; inhibitor concentration 0.02 mM)	Vmax (α-Glucosidase (AGS) [2]; inhibitor concentration 0.03 mM)	Vmax (α-Glucosidase (AGS) [2]; [4])	Ki (α-Glucosidase (AGS) [2]; [5])	IC50 (α-Glucosidase (AGS) [3])	IC50 at 48 h [1]	Vmax (α-Glucosidase (AGS) [2]; [6])	Vmax (α-Glucosidase (AGS) [2]; [7])	Vmax (α-Glucosidase (AGS) [2]; [8])	Vmax (α-Glucosidase (AGS) [2]; [9])	Ki (α-Glucosidase (AGS) [2]; secondary plot of slope versus [I], binding to free AGS, read-out: Ki)	Vmax (α-Glucosidase (AGS) [2]; [10])	Vmax (α-Glucosidase (AGS) [2]; [11])	Vmax (α-Glucosidase (AGS) [2]; inhibitor concentration 0.20 mM)
O=C1N[C@@H](Cc2c[nH]c3ccccc23)C(=O)N2CCC[C@@H]12 [Compound 8, cyclo(L-Pro-L-Trp)]	> 100 µM	43.9 µM	non-competitive inhibitors	0.85 ± 0.05 µM/min	0.66 ± 0.03 µM/min	0.41 ± 0.03 µM/min	46.28 µM	53.8 ± 1.88 µM									
C[C@@H]1NC(=O)[C@@H]2CCCN2C1=O [Compound 17, cyclo(L-Ala-L-Pro)]			non-competitive and uncompetitive mixed-type of inhibition					56.75 ± 0.32 µM	> 100 µM	0.79 ± 0.02 µM/min	0.66 ± 0.03 µM/min	0.47 ± 0.01 µM/min					
COC1CCC=C(C)C(=O)Nc2cc(O)cc(c2)CC(C)CC(OC)C(O)C(C)C=C(C)C1OC(N)=O (stereo not shown) [Compound 3, autolytimycin]			non-competitive inhibitors			0.46 ± 0.03 µM/min	53.10 µM	35.8 ± 0.4 µM	> 100 µM	0.67 ± 0.04 µM/min			0.86 ± 0.03 µM/min	49.2 µM			
CC[C@H](C)[C@@H]1NC(=O)[C@H](CC(C)C)NC1=O [Compound 16, cyclo(L-Leu-L-Ile)]		59.8 µM	mixed-type manner			0.86 ± 0.11 µM/min	78.89 µM	74 ± 1.25 µM	> 100 µM						1.07 ± 0.13 µM/min	0.74 ± 0.07 µM/min	
CC[C@H](C)[C@@H]1NC(=O)[C@H](Cc2ccc(O)cc2)NC1=O [Compound 11, cyclo(L-Ile-L-Tyr)]		95.5 µM	mixed-type manner				531.53 µM	101 ± 2.52 µM	> 100 µM	0.98 ± 0.05 µM/min	0.94 ± 0.02 µM/min	0.90 ± 0.05 µM/min					
O=C1N[C@@H](Cc2c[nH]c3ccccc23)C(=O)N[C@H]1CO [Compound 9, cyclo(L-Ser-L-Trp)]		149 µM	mixed-type manner			1.11 ± 0.14 µM/min	238.78 µM	164 ± 15.5 µM	> 100 µM						1.33 ± 0.17 µM/min		0.89 ± 0.22 µM/min
O=C1NC(Cc2ccccc2)C(=O)NC1CO [Compound 14, cyclo(L-Ser-L-Phe)]			competitive inhibitor					62.2 ± 0.11 µM	> 100 µM			0.76 ± 0.04 µM/min	0.81 ± 0.06 µM/min			0.83 ± 0.18 µM/min	
